# Experimental data from patent publication US20110076293A1, “TRIPTOLIDE DERIVATIVES FOR MODULATION OF APOPTOSIS AND IMMUNOSUPPRESSION” (priority 2002, published 2011).
# Like-named read-outs stand apart in the source and are kept apart here.
# Columns and labels:
# [1] = test system: Jurkat human T lymphocyte cell line; experiment: Apoptosis assay (Annexin V) of compounds incubated with human serum; conditions: for EC50: Homo sapiens, Jurkat; for % apoptotic cells at given concentration (nM): Table 4
# Protocol: Compounds of formula I, as shown in Table 1 above and in the Examples, were assayed for their capacity to induce apoptosis in cells from the Jurkat human T lymphocyte cell line, after incubation with pooled human serum for varying periods of time at 37° C. (see Example 19). An ester prodrug, triptolide-14-succinate, designated PG490-88, was included for comparison. The extent of conversion to triptolide after such incubation was also independently determined by HPLC analysis.
# The ED50 values (column 3) are calculated directly from the data in each experiment, and the % conversion values (column 4) are calculated as percent of the ED50 value produced by triptolide, designated PG490, incubated in the same plasma (i.e. in the same experiment).
# A. Incubation of compounds with human serum. Pooled human serum was stored in aliquots at −80° C. Test compounds were added at 20 mM to thawed human serum in 1.5 ml microfuge tubes and incubated at 37° C. in a water bath for varying periods of time. The test samples were placed on ice until dilution for the bioassay. Controls consisted of the compounds incubated in complete tissue culture medium (RPMI 1640 medium plus 5% heat-inactivated fetal calf serum, 1% HEPES, 1% pen/strep, 1% glutamine) rather than human serum.
# B. Apoptosis assay of compounds incubated with human serum. Test samples were diluted to 1 mM in complete tissue culture medium. Aliquots were placed in microculture plates and serial dilutions were prepared so that the final concentration would encompass the range of 1 to 10,000 nM with half-log increments. Cells from an exponentially expanding culture of the Jurkat human T lymphocyte cell line (#TIB-152 obtained from American Type Culture Collection, Manassas, Va.) were harvested, washed once by centrifugation and dilution in complete tissue culture medium, and diluted to a concentration of 1×10^6 cells/ml. A volume of 100 μl of Jurkat cells (1×10^5 cells) was added to wells containing 100 μl of the diluted compounds, and the plates were incubated at 37° C. in a 5% CO2 incubator. After 24 hours, the plates were centrifuged to pellet the cells, and the cells were washed twice with 2% heat-inactivated fetal calf serum in PBS. To each well, 500 ul of binding buffer was added according to the Annexin V assay procedure (BioVision, Inc., Mountain View, Calif.). Next, 5 μl of the fluorescein isothiocyanate (FITC) conjugate of Annexin V (BioVision, Inc.) was added to each well, followed by 5 minutes of incubation in the dark. In some assays, propidium iodide (BioVision, Inc.) was added at this stage to check for necrotic cells. The contents of the wells were individually transferred into test tubes, and apoptosis was analyzed using a FACSCalibur flow cytometer (BD Immunocytometry Systems, San Jose, Calif.). Cells positive for Annexin V binding were considered to be apoptotic, and the data were calculated as percent apoptotic cells.
# (§1) C. Comparison of bioactivities after incubation of compounds in human serum. The data were plotted as the concentration of compound incubated in serum versus percent apoptotic cells. The concentration of compound inducing 50% apoptosis (ED50) was calculated from these dose response curves. […] This percentage conversion was used to compare the bioactivity of various compounds after incubation in human serum.
# [2] = test system: IL-2 production in Jurkat human T lymphocyte cells; experiment: IL-2 production assay for activity of compounds incubated with human serum; conditions: for IC50: Homo sapiens, Jurkat, 48 h, IL-2 production in Jurkat cells after incubation with pooled human serum for 48 hours at 37° C.; for Conversion (%): percent of the IC50 value produced by triptolide (PG490) in the same experiment, human serum 48 hours; for bioactivity in IL-2 inhibition assays (in words): FIGS. 4-5; for IL-2 pg/mL at given concentration (nM): Table 8, Jurkat cells
# Protocol: Several compounds of formula I were analyzed for their capacity to inhibit IL-2 production in Jurkat human T lymphocyte cells, after incubation with pooled human serum for 48 hours at 37° C. (see Example 20). An ester prodrug, triptolide-14-succinate, designated PG490-88, was included for comparison.
# The IC50 values (column 1) are calculated directly from the data in each experiment. The % conversion values (column 2) are calculated as the percent of the IC50 value produced by triptolide, designated PG490, incubated in the same plasma (i.e. in the same experiment).
# A. IL-2 production assay for activity of compounds incubated with human serum. Test samples were diluted to 1 mM in complete tissue culture medium. […] Cells from an exponentially expanding culture of the Jurkat human T lymphocyte cell line (#TIB-152 obtained from American Type Culture Collection, Manassas, Va.) were harvested, washed once by centrifugation and dilution in complete tissue culture medium, and diluted to a concentration of 2×10^6 cells/ml. A volume of 50 μl of Jurkat cells (1×10^5 cells) was added to wells containing 100 μl of the diluted compounds, 50 μl of PMA (10 ng/ml) was added to each well, and the plates were incubated at 37° C. in a 5% CO2 incubator. After 24 hours, the plates were centrifuged to pellet the cells, 150 μl of supernatant was removed from each well, and the samples were stored at −20° C. The stored supernatants were analyzed for human IL-2 concentration using the Luminex 100 (Luminex Corporation, Austin, Tex.), Luminex microspheres coupled with anti-IL-2 capture antibody, and fluorochrome-coupled anti-IL-2 detection antibody. The data were expressed as ng/ml of IL-2.
# as §1, with “B.” for “C.”, “IL-2 concentration.” for “percent apoptotic cells.”, “inducing a” for “inducing”, “decrease in the IL-2 concentration (IC50)” for “apoptosis (ED50)”
# [3] = 48 h, read-out: ED50 (nM) in apoptosis assay after incubation with serum, incubation time in human serum 48 hours, 37° C.
# [4] = incubation time in human serum 48 hours
smiles,measurement,setting,value
"CC(C)[C@]12O[C@H]1[C@@H]1O[C@]13[C@]1(O[C@H]1C[C@H]1C4=C(CC[C@@]13C)C(=O)OC4)[C@@H]2OC(=O)OC(C)(C)C [PG695, Triptolide 14-tert-Butyl Carbonate]",EC50,[1]; [3],59 nM
same,"Conversion, as relative ED50 compared to triptolide (%)",[1]; [4],100%
same,IC50,[2],100 nM
same,Conversion (%),[2],2%
"CC(C)[C@]12O[C@H]1[C@@H]1O[C@]13[C@]1(O[C@H]1C[C@H]1C4=C(CC[C@@]13C)C(=O)OC4)[C@@H]2OC(=O)O[C@H](C)C(=O)OC(C)(C)C [PG681, Triptolide 14-(R)-α-Methyl-tert-butoxycarbonylmethyl Carbonate]",EC50,"[1]; 1 h, read-out: ED50 (nM) in apoptosis assay after incubation with serum, incubation time in human serum 1 hour, 37° C.",684 nM
same,EC50,[1]; [3],139 nM
same,"Conversion, as relative ED50 compared to triptolide (%)",[1]; incubation time in human serum 1 hour,7%
same,"Conversion, as relative ED50 compared to triptolide (%)",[1]; [4],40%
same,IC50,[2],3 nM
same,Conversion (%),[2],55%
"CC(C)[C@]12O[C@H]1[C@@H]1O[C@]13[C@]1(O[C@H]1C[C@H]1C4=C(CC[C@@]13C)C(=O)OC4)[C@@H]2OC(=O)N1CCN(C)CC1 [PG672, N-methylpiperazinecarbonyl (carbamate)]",conversion in human serum (in words),[1],less readily converted
same,% apoptotic cells at given concentration (nM),"[1]; medium, 10000 nM",48.6%
same,% apoptotic cells at given concentration (nM),"[1]; serum, 0 hr, 10000 nM",47.6%
same,% apoptotic cells at given concentration (nM),"[1]; serum, 48 hr, 0.03 nM",42.7%
same,% apoptotic cells at given concentration (nM),"[1]; serum, 48 hr, 0.1 nM",45.2%
same,% apoptotic cells at given concentration (nM),"[1]; serum, 48 hr, 0.3 nM",45.4%
same,% apoptotic cells at given concentration (nM),"[1]; serum, 48 hr, 1 nM",45.9%
same,% apoptotic cells at given concentration (nM),"[1]; serum, 48 hr, 3 nM",45.3%
same,% apoptotic cells at given concentration (nM),"[1]; serum, 48 hr, 10 nM",46.0%
same,% apoptotic cells at given concentration (nM),"[1]; serum, 48 hr, 30 nM",46.8%
same,% apoptotic cells at given concentration (nM),"[1]; serum, 48 hr, 100 nM",46.6%
same,% apoptotic cells at given concentration (nM),"[1]; serum, 48 hr, 300 nM",42.3%
same,% apoptotic cells at given concentration (nM),"[1]; serum, 48 hr, 1000 nM",43.7%
same,% apoptotic cells at given concentration (nM),"[1]; serum, 48 hr, 3000 nM",44.9%
same,% apoptotic cells at given concentration (nM),"[1]; serum, 48 hr, 10000 nM",63.2%
same,apoptotic activity (in words),[1]; after 48 hr. incubation in human serum,activity at high concentrations
same,bioactivity in IL-2 inhibition assays (in words),[2],some level of bioactivity
same,IL-2 pg/mL at given concentration (nM),[2]; 0.0001 nM,103.3 pg/mL
same,IL-2 pg/mL at given concentration (nM),[2]; 0.001 nM,90.8 pg/mL
same,IL-2 pg/mL at given concentration (nM),[2]; 0.01 nM,99.1 pg/mL
same,IL-2 pg/mL at given concentration (nM),[2]; 0.1 nM,117.1 pg/mL
same,IL-2 pg/mL at given concentration (nM),[2]; 1 nM,91.4 pg/mL
same,IL-2 pg/mL at given concentration (nM),[2]; 10 nM,99.1 pg/mL
same,IL-2 pg/mL at given concentration (nM),[2]; 100 nM,64.6 pg/mL
same,IL-2 pg/mL at given concentration (nM),[2]; 1000 nM,26.8 pg/mL
same,IL-2 pg/mL at given concentration (nM),[2]; 10000 nM,8.7 pg/mL
"CC(C)[C@]12O[C@H]1[C@@H]1O[C@]13[C@]1(O[C@H]1C[C@H]1C4=C(CC[C@@]13C)C(=O)OC4)[C@@H]2OC(=O)Nc1ccccc1 [PG671, Triptolide 14-Phenyl Carbamate]",conversion in human serum (in words),[1],less readily converted
same,% apoptotic cells at given concentration (nM),"[1]; medium, 10000 nM",13.7%
same,% apoptotic cells at given concentration (nM),"[1]; serum, 0 hr, 10000 nM",10.2%
same,% apoptotic cells at given concentration (nM),"[1]; serum, 48 hr, 0.03 nM",42.5%
same,% apoptotic cells at given concentration (nM),"[1]; serum, 48 hr, 0.1 nM",43.3%
same,% apoptotic cells at given concentration (nM),"[1]; serum, 48 hr, 0.3 nM",43.9%
same,% apoptotic cells at given concentration (nM),"[1]; serum, 48 hr, 1 nM",44.2%
same,% apoptotic cells at given concentration (nM),"[1]; serum, 48 hr, 3 nM",43.2%
same,% apoptotic cells at given concentration (nM),"[1]; serum, 48 hr, 10 nM",42.4%
same,% apoptotic cells at given concentration (nM),"[1]; serum, 48 hr, 30 nM",44.7%
same,% apoptotic cells at given concentration (nM),"[1]; serum, 48 hr, 100 nM",43.5%
same,% apoptotic cells at given concentration (nM),"[1]; serum, 48 hr, 300 nM",43.1%
same,% apoptotic cells at given concentration (nM),"[1]; serum, 48 hr, 1000 nM",43.0%
same,% apoptotic cells at given concentration (nM),"[1]; serum, 48 hr, 3000 nM",43.3%
same,% apoptotic cells at given concentration (nM),"[1]; serum, 48 hr, 10000 nM",15.4%
same,bioactivity in IL-2 inhibition assays (in words),[2],some level of bioactivity
same,IL-2 pg/mL at given concentration (nM),[2]; 0.0001 nM,96.4 pg/mL
same,IL-2 pg/mL at given concentration (nM),[2]; 0.001 nM,102.7 pg/mL
same,IL-2 pg/mL at given concentration (nM),[2]; 0.01 nM,99.7 pg/mL
same,IL-2 pg/mL at given concentration (nM),[2]; 0.1 nM,114.7 pg/mL
same,IL-2 pg/mL at given concentration (nM),[2]; 1 nM,106.1 pg/mL
same,IL-2 pg/mL at given concentration (nM),[2]; 10 nM,90.7 pg/mL
same,IL-2 pg/mL at given concentration (nM),[2]; 100 nM,77.9 pg/mL
same,IL-2 pg/mL at given concentration (nM),[2]; 1000 nM,48.7 pg/mL
same,IL-2 pg/mL at given concentration (nM),[2]; 10000 nM,8.8 pg/mL
